The subject of series [1] is Monocotyledonous and dicotyledonous weed. Briefly: Post-emergence test experiment, weed control effect (Table 2). The class given is in vivo. On the set-up: key to weed control effect, Setaria viridis (level) / weed control effect, Rorippa indica (level) / weed control effect, Abutilon theophrasti (level) / weed control effect, Echinochloa crus-galli (level) / weed control effect, Digitaria sanguinalis (level): Level 10: completely dead; Level 9: above 90% growth inhibition rate; Level 8: above 80% growth inhibition rate; Level 7: above 70% growth inhibition rate; Level 6: above 60% growth inhibition rate; Level 5: above 50% growth inhibition rate; Level 4: above 30% growth inhibition rate; Level 3: above 20% growth inhibition rate; Level 2: above 10% growth inhibition rate; Level 1: above 1-10% growth inhibition rate; Level 0: no effect. The settings on record: 3 weeks after spraying, greenhouse. On the procedure:
(§1) Post-emergence test experiment: Monocotyledonous and dicotyledonous weed seeds and main crop seeds (i.e. wheat, corn, rice, soybean, cotton, oilseed, millet and sorghum.) were put into a plastic pot loaded with soil. Then covered with 0.5-2 cm soil, the seeds were allowed to grow in good greenhouse environment. The test plants were treated at 2-3 leaf stage 2-3 weeks after sowing. The test compounds of the invention were dissolved with acetone respectively, then added with 80 tween and diluted by certain amount of water to certain concentration. The solution was sprayed to the plants with a sprayer. Then the plants were cultured for 3 weeks in the greenhouse.

For series [2], the system named is main crop (wheat, corn, rice, soybean, cotton, oilseed, millet and sorghum). Briefly: Post-emergence test experiment, main crops (Table 2). On the set-up: key: Level 10: completely dead; Level 9: above 90% growth inhibition rate; Level 8: above 80% growth inhibition rate; Level 7: above 70% growth inhibition rate; Level 6: above 60% growth inhibition rate; Level 5: above 50% growth inhibition rate; Level 4: above 30% growth inhibition rate; Level 3: above 20% growth inhibition rate; Level 2: above 10% growth inhibition rate; Level 1: above 1-10% growth inhibition rate; Level 0: no effect. Format: in vivo. The settings on record: 3 weeks after spraying, greenhouse. On the procedure: as §1

For `Cc1nn(C)cc1C(=O)Oc1c(C(=O)c2ccc(S(C)(=O)=O)c(Cn3cccn3)c2Cl)c(C)nn1C` [Compound 01], in series [1] (60 g/ha), the “weed control effect, Abutilon theophrasti (level)” value is 10; the “weed control effect, Bidens pilosa (level)” value is listed as 8 (Level 8: above 80% growth inhibition rate); the “weed control effect, Digitaria sanguinalis (level)” value stood at 10; the “weed control effect, Echinochloa crus-galli (level)” value is recorded as 10. For the same compound, in series [1] (60 g/ha), the “weed control effect, Rorippa indica (level)” value came to 10 and the “weed control effect, Setaria viridis (level)” value was 10. Also, in series [2] (60 g/ha), the “effect on crop, corn (level)” value is 1 (Level 1: above 1-10% growth inhibition rate); the “effect on crop, rice (level)” value is 1 (Level 1: above 1-10% growth inhibition rate); the “effect on crop, wheat (level)” value is on record as 1 (Level 1: above 1-10% growth inhibition rate).

For the compound `Cc1cc(C)n(Cc2c(S(C)(=O)=O)ccc(C(=O)c3c(C)nn(C)c3OC(=O)c3cn(C)nc3C)c2Cl)n1` [Compound 03], in series [1] (120 g/ha), the “weed control effect, Abutilon theophrasti (level)” value was 4 (Level 4: above 30% growth inhibition rate); the “weed control effect, Bidens pilosa (level)” value was 6 (Level 6: above 60% growth inhibition rate); the “weed control effect, Digitaria sanguinalis (level)” value came out at 0; the “weed control effect, Echinochloa crus-galli (level)” value is reported as 10. In series [1] (120 g/ha), the “weed control effect, Rorippa indica (level)” value came out at 0 and the “weed control effect, Setaria viridis (level)” value was 6 (Level 6: above 60% growth inhibition rate). Moreover, in series [2] (120 g/ha), the “effect on crop, corn (level)” value turned out to be 0; the “effect on crop, rice (level)” value was 0; the “effect on crop, wheat (level)” value was 0.

Consider `Cc1cnn(Cc2c(S(C)(=O)=O)ccc(C(=O)c3c(C)nn(C)c3OC(=O)c3cn(C)nc3C)c2Cl)c1` [Compound 04], for which, in series [1] (120 g/ha), the “weed control effect, Abutilon theophrasti (level)” value was 6 (Level 6: above 60% growth inhibition rate); the “weed control effect, Bidens pilosa (level)” value is reported as 6 (Level 6: above 60% growth inhibition rate); the “weed control effect, Digitaria sanguinalis (level)” value is 1 (Level 1: above 1-10% growth inhibition rate); the “weed control effect, Echinochloa crus-galli (level)” value was 10. Further, in series [1] (120 g/ha), the “weed control effect, Rorippa indica (level)” value is 4 (Level 4: above 30% growth inhibition rate) and the “weed control effect, Setaria viridis (level)” value is reported as 5 (Level 5: above 50% growth inhibition rate). In series [2] (120 g/ha), the “effect on crop, corn (level)” value was 0; the “effect on crop, rice (level)” value was 0; the “effect on crop, wheat (level)” value turned out to be 0.

Consider `Cc1nn(C)cc1C(=O)Oc1c(C(=O)c2ccc(S(C)(=O)=O)c(Cn3cc(Cl)cn3)c2Cl)c(C)nn1C` [Compound 05], for which, in series [1] (120 g/ha), the “weed control effect, Abutilon theophrasti (level)” value is reported as 9 (Level 9: above 90% growth inhibition rate); the “weed control effect, Bidens pilosa (level)” value is on record as 8 (Level 8: above 80% growth inhibition rate); the “weed control effect, Digitaria sanguinalis (level)” value is 9 (Level 9: above 90% growth inhibition rate); the “weed control effect, Echinochloa crus-galli (level)” value is given as 10. Further, in series [1] (120 g/ha), the “weed control effect, Rorippa indica (level)” value came out at 10 and the “weed control effect, Setaria viridis (level)” value is 5 (Level 5: above 50% growth inhibition rate). In series [2] (120 g/ha), the “effect on crop, corn (level)” value came out at 0; the “effect on crop, rice (level)” value is recorded as 1 (Level 1: above 1-10% growth inhibition rate); the “effect on crop, wheat (level)” value was determined as 0.

For `Cc1cnn(Cc2c(S(C)(=O)=O)ccc(C(=O)c3cnn(C)c3OC(=O)c3cn(C)nc3C)c2Cl)c1` [Compound 07], in series [1] (120 g/ha), the “weed control effect, Abutilon theophrasti (level)” value was 6 (Level 6: above 60% growth inhibition rate); the “weed control effect, Bidens pilosa (level)” value is 6 (Level 6: above 60% growth inhibition rate); the “weed control effect, Digitaria sanguinalis (level)” value is on record as 1 (Level 1: above 1-10% growth inhibition rate); the “weed control effect, Echinochloa crus-galli (level)” value turned out to be 10. Besides, in series [1] (120 g/ha), the “weed control effect, Rorippa indica (level)” value is given as 4 (Level 4: above 30% growth inhibition rate) and the “weed control effect, Setaria viridis (level)” value is given as 5 (Level 5: above 50% growth inhibition rate). Besides, in series [2] (120 g/ha), the “effect on crop, corn (level)” value was 0; the “effect on crop, rice (level)” value came to 0; the “effect on crop, wheat (level)” value was found to be 0.

Turning to `Cc1nn(C)cc1C(=O)Oc1c(C(=O)c2ccc(S(C)(=O)=O)c(Cn3cccn3)c2Cl)cnn1C` [Compound 08], in series [1] (60 g/ha), the “weed control effect, Abutilon theophrasti (level)” value was 10; the “weed control effect, Bidens pilosa (level)” value was 8 (Level 8: above 80% growth inhibition rate); the “weed control effect, Digitaria sanguinalis (level)” value is given as 7 (Level 7: above 70% growth inhibition rate); the “weed control effect, Echinochloa crus-galli (level)” value is reported as 9 (Level 9: above 90% growth inhibition rate). Besides, in series [1] (60 g/ha), the “weed control effect, Rorippa indica (level)” value is listed as 10 and the “weed control effect, Setaria viridis (level)” value is 7 (Level 7: above 70% growth inhibition rate). Also, in series [2] (60 g/ha), the “effect on crop, corn (level)” value is 1 (Level 1: above 1-10% growth inhibition rate); the “effect on crop, rice (level)” value is on record as 1 (Level 1: above 1-10% growth inhibition rate); the “effect on crop, wheat (level)” value is recorded as 1 (Level 1: above 1-10% growth inhibition rate).

As for `Cc1ccn(Cc2c(S(C)(=O)=O)ccc(C(=O)c3c(C4CC4)nn(C)c3OC(=O)c3cn(C)nc3C)c2Cl)n1` [Compound 09], in series [1] (120 g/ha), the “weed control effect, Abutilon theophrasti (level)” value is recorded as 7 (Level 7: above 70% growth inhibition rate); the “weed control effect, Bidens pilosa (level)” value is given as 9 (Level 9: above 90% growth inhibition rate); the “weed control effect, Digitaria sanguinalis (level)” value is 2 (Level 2: above 10% growth inhibition rate); the “weed control effect, Echinochloa crus-galli (level)” value is listed as 9 (Level 9: above 90% growth inhibition rate). In series [1] (120 g/ha), the “weed control effect, Rorippa indica (level)” value stood at 10 and the “weed control effect, Setaria viridis (level)” value is on record as 6 (Level 6: above 60% growth inhibition rate). Moreover, in series [2] (120 g/ha), the “effect on crop, corn (level)” value turned out to be 0; the “effect on crop, rice (level)” value was 1 (Level 1: above 1-10% growth inhibition rate); the “effect on crop, wheat (level)” value turned out to be 0.

With `Cc1cc(C)n(Cc2c(S(C)(=O)=O)ccc(C(=O)c3c(C4CC4)nn(C)c3OC(=O)c3cn(C)nc3C)c2Cl)n1` [Compound 11], in series [1] (120 g/ha), the “weed control effect, Abutilon theophrasti (level)” value was 4 (Level 4: above 30% growth inhibition rate); the “weed control effect, Bidens pilosa (level)” value is 6 (Level 6: above 60% growth inhibition rate); the “weed control effect, Digitaria sanguinalis (level)” value turned out to be 0; the “weed control effect, Echinochloa crus-galli (level)” value came out at 10. Besides, in series [1] (120 g/ha), the “weed control effect, Rorippa indica (level)” value worked out at 0 and the “weed control effect, Setaria viridis (level)” value is recorded as 6 (Level 6: above 60% growth inhibition rate). In addition, in series [2] (120 g/ha), the “effect on crop, corn (level)” value worked out at 0; the “effect on crop, rice (level)” value stood at 0; the “effect on crop, wheat (level)” value was 0.

Turning to `Cc1cnn(Cc2c(S(C)(=O)=O)ccc(C(=O)c3c(C4CC4)nn(C)c3OC(=O)c3cn(C)nc3C)c2Cl)c1` [Compound 12], in series [1] (120 g/ha), the “weed control effect, Abutilon theophrasti (level)” value is given as 6 (Level 6: above 60% growth inhibition rate); the “weed control effect, Bidens pilosa (level)” value is reported as 6 (Level 6: above 60% growth inhibition rate); the “weed control effect, Digitaria sanguinalis (level)” value was 0; the “weed control effect, Echinochloa crus-galli (level)” value is 10. Also, in series [1] (120 g/ha), the “weed control effect, Rorippa indica (level)” value is on record as 4 (Level 4: above 30% growth inhibition rate) and the “weed control effect, Setaria viridis (level)” value was 1 (Level 1: above 1-10% growth inhibition rate). Besides, in series [2] (120 g/ha), the “effect on crop, corn (level)” value was 0; the “effect on crop, rice (level)” value is recorded as 0; the “effect on crop, wheat (level)” value turned out to be 0.

As to `Cc1nn(C)cc1C(=O)Oc1c(C(=O)c2ccc(S(C)(=O)=O)c(Cn3cccn3)c2Cl)c(C2CC2)nn1C` [Compound 13], in series [1] (60 g/ha), the “weed control effect, Abutilon theophrasti (level)” value is reported as 10; the “weed control effect, Bidens pilosa (level)” value was 8 (Level 8: above 80% growth inhibition rate); the “weed control effect, Digitaria sanguinalis (level)” value amounted to 10; the “weed control effect, Echinochloa crus-galli (level)” value is 10. Moreover, in series [1] (60 g/ha), the “weed control effect, Rorippa indica (level)” value is 10 and the “weed control effect, Setaria viridis (level)” value is on record as 7 (Level 7: above 70% growth inhibition rate). Besides, in series [2] (60 g/ha), the “effect on crop, corn (level)” value is recorded as 0; the “effect on crop, rice (level)” value was 1 (Level 1: above 1-10% growth inhibition rate); the “effect on crop, wheat (level)” value is reported as 1 (Level 1: above 1-10% growth inhibition rate).

For the compound `Cc1cnn(Cc2c(S(C)(=O)=O)ccc(C(=O)c3c(C)nn(C)c3OC(=O)c3cnn(C)c3)c2Cl)c1` [Compound 14], in series [1] (120 g/ha), the “weed control effect, Abutilon theophrasti (level)” value is recorded as 6 (Level 6: above 60% growth inhibition rate); the “weed control effect, Bidens pilosa (level)” value is 6 (Level 6: above 60% growth inhibition rate); the “weed control effect, Digitaria sanguinalis (level)” value came to 0; the “weed control effect, Echinochloa crus-galli (level)” value came to 10. In series [1] (120 g/ha), the “weed control effect, Rorippa indica (level)” value is 4 (Level 4: above 30% growth inhibition rate) and the “weed control effect, Setaria viridis (level)” value was 1 (Level 1: above 1-10% growth inhibition rate). In series [2] (120 g/ha), the “effect on crop, corn (level)” value worked out at 0; the “effect on crop, rice (level)” value amounted to 0; the “effect on crop, wheat (level)” value is 0.
